These results are taken from US6326466A, “Double-stranded RNA dependent protein kinase derived peptides to promote proliferation of cells and tissues in a controlled manner” (priority 1999, dated 2001).

For series [1], the system named is 3T3442A cells. Format: cell-based. As to conditions: one hour at 37EC. The procedure: A PKR peptide antagonist (50 μg) having the sequence […] (SEQ ID NO: 25) comprising a cell permeability subsequence (residues 1-16 of SEQ ID NO:25), a heme agglutinin-epitope tag subsequence (residues 17-25 of SEQ ID NO:25), and a PKR peptide antagonist subsequence (residues 26-46 of SEQ ID NO:25) was radiolabeled with [^125 I]-iodine by the chloramine-T method (Hunter, W. M. and Greenwood, F. C. Nature 194:495-496, 1962) and purified by size exclusion chromatography using BioGel P2 (BioRad, Inc.) 35 million CPM of radiolabeled PKR peptide was added to pre-confluent cultures of 3T3442A cells grown in medium containing 10% FBS. After 1 hour at 37° C., the media was aspirated and the cells were washed four times in phosphate buffered saline (PBS). Cells were removed from the culture dishes by scraping and collected by centrifugation (4EC, 750×g, 5 min). The wash buffer was removed and the cell pellet was dissolved in SDS-polyacrylamide gel buffer (Laemmli, Nature (London), 227:680-685, 1970). The sample was analyzed by SDS-tricine polyacrylamide gel electrophoresis using 4-20% gradient tricine-SDS gels and the radiolabeled peptide antagonist was visualized by autoradiography of dried gels. […]
The subcellular localization of the PKR peptide antagonist (SEQ ID NO:25) that had been internalized by 3T3442A cells was determined by confocal microscopy. […]

Series [2] has as its target T1, PKR (dsRNA-dependent protein kinase) (Oryctolagus cuniculus) (UniProt Q287T5).
T1 sequence: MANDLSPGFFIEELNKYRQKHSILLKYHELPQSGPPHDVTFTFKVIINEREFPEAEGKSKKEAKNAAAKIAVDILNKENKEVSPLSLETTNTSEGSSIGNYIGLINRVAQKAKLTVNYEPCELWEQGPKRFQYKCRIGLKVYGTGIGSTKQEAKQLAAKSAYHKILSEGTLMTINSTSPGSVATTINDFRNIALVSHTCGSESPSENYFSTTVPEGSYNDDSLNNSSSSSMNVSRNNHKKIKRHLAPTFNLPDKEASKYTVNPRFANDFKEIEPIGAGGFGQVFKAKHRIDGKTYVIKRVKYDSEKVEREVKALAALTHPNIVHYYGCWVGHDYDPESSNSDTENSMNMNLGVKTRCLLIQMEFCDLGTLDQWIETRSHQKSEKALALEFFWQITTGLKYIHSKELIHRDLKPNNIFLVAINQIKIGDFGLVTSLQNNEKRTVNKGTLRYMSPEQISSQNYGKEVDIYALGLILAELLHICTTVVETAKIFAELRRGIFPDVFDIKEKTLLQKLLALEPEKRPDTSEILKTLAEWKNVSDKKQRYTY
The series is described as follows: competition. As to conditions: unlabeled poly(I)-poly(C) 80 ug/ml as competitor to TAR RNA.

Ends that are not written are not given here.

“AAVALLPAVLLALLAPYPYDVPDYAKKEAKNAAAKLAVEILNKEKK [SEQ ID NO:25]”: the “subcellular localization of internalized peptide (confocal microscopy, anti-HA)” value in series [1] is “obvious, intense localization of the epitope-tagged peptide to the cell cytoplasm”. Regarding poly(I)-poly(C), the binding signal (% inhibition of TAR complex) in series [2] was 60.
